Reference: US5886011A, “Piperidine derivatives as substance P antagonists” (Hisamitsu Pharmaceutical Co., Inc., priority 1995, dated 1999)

Key:
Substance P = assay: Antagonism test on Substance P-induced airway edema; assay type: in vivo, guinea pig (hartley male); settings: Cavia porcellus, po, compared to the control group, read-out: Inhibition Rate (airway edema, dye transudated into trachea and main bronchi); for inhibition in vivo at 1 mg/kg: 1 mg/kg orally, thirty minutes before induction
Description: C. Antagonism Test on Substance P-induced Airway Edema
20 mg/kg of Evans' Blue and 1 nm/kg Substance P containing 200 I.U./kg of heparin were administered intravenously to hartley male guinea pigs in order to induce airway edema. After ten minutes, the guinea pigs were exsanguinated deadly. The amounts of the dye transudated into trachea and main bronchi were determined. 1 mg/kg of the subject compounds were administered orally at thirty minutes before the induction. […] Further, for comparison, the following compounds A and B were used.

cisplatin-induced emesis = assay: Anti-emetic effect against cisplatin-induced emesis; assay type: in vivo, ferret (male)
Description: D. Anti-emetic Effect against Cisplatin-induced Emesis
The test was carried out using male ferret (approx. 1.5 kg.). Emesis was induced by intraperitoneal administration of cisplatin (10 mg/kg). 1 mg/kg of the subject compounds were administered orally just after the cisplatin administration. The results will be shown in Table 3 as the inhibition rates compared to the control group, using the number of vomits as indexes. Further, for comparisons, the following compounds A and C were used.

[1] = biological target: T1, Substance P receptor (guinea pig ileum longitudinal muscle) (Cavia porcellus, UniProt P30547); assay: Receptor-binding test ([125I]SP ligand, guinea pig ileum longitudinal muscle receptor samples); settings: 10^-8 M compound; [125I]SP 50 pM, 22° C., 20 minutes
T1 construct: ileum was removed and the longitudinal muscle was stripped off; from tissue; host or cells: guinea pig ileum longitudinal muscle, washed membrane pellets
T1 sequence (P30547 whole entry): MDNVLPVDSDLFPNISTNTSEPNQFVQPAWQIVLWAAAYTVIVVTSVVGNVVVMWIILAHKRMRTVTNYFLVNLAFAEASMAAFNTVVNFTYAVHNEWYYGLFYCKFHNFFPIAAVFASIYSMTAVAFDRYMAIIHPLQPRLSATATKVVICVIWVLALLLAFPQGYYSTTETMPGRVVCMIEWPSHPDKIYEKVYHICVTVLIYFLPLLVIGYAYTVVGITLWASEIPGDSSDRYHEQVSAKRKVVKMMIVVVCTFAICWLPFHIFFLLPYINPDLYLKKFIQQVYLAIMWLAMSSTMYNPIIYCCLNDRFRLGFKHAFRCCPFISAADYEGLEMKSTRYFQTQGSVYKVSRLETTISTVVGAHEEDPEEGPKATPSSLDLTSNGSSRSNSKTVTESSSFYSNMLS
Description: To the longitudinal muscles, 20 times of the wet weight of the buffer solution (1) (50 mM tris-HCl buffer solution containing 2 mM MgCl2 and 0.1 mM phenyl methyl sulfonyl-fluoride, pH 7.4) was added. The mixture was homogenized under ice-cooling and centrifuged at 48,000×G for 15 minutes. After removing the supernatant, the pellets were re-suspended in the buffer solution (1) and centrifuged at 48,000×G for 15 minutes. The buffer solution (2) (50 mM tris.HCl buffer solution containing 10 mM ethylenediaminetetraacetic acid and 300 mM KCl, pH 7.4) was added to the pellets and suspended to be reacted under ice-cooling for 60 minutes. The resulted reaction materials were centrifuged at 48,000×G for 15 minutes. After suspending the pellets in the buffer solution (1) and distributing, the mixture were centrifuged at 48,000×G for 15 minutes. The pellets were stored at -80° C. until used as receptor samples.
Thus obtained receptor samples were suspended in 50 mM tris-HCl buffer solution to be used. As the buffer solution, binding buffer solution (tris.HCl buffer solution containing 0.02% bovine serum albumin, 40 μg/ml bacitracin, 4 μg/ml chymostatin, 4 μg/ml leupeptin and 3 mM MnCl2, pH7.4) was used.

[2] = system: Substance P (guinea pig ileum); assay: Bioassay test: Substance P-induced contraction of guinea pig ileum strips; settings: 10^-7 M compound; contraction by 10^-8 M Substance P regarded as 100%
Description: B. Bioassay Test […] After exsanguinating guinea pigs (body weight: 500-600 g) deadly, ileum was removed and 2 cm of ileum strips were prepared. In a Tyrode's solution (10 ml, 37° C.) in which air is passed, containing 5.2 μM atropine and 4.1 μM indomethacin, the strips having 0.5 g resting tension was suspended, and contractions of muscle were recorded on a recording device (RTA-1200, manufactured by Nihon Kohden) via an isotonic transducer (TB-612T, manufactured by Nihon Kohden). Using three specimens per one group, effects of the subject drugs on the muscle contraction caused by 10^-8 M Substance P were determined.

SD rats = assay: Toxicity test, seven days; assay type: in vivo, rat (male SD); settings: 3, 10 and 30 mg/kg, male SD rats
Description: 3, 10 and 30 mg/kg of the compound of Example 46 are administered to five male SD rats per one group for seven days. The compound had no influence on body weights gains, organ weights, numbers of erythrocytes nor numbers of leukocytes.

[3] = 1 mg/kg orally just after cisplatin (10 mg/kg i.p.), compared to the control group

Compound	inhibition in vivo at 10 mg/kg (Substance P; 10 mg/kg (comparison compound), orally) [%]	Inhibition Rate (number of vomits) (cisplatin-induced emesis; 10 mg/kg (comparison compound), orally just after cisplatin (10 mg/kg i.p.)) [%]	Inhibition Rate (number of vomits) (cisplatin-induced emesis; [3]) [%]	inhibition at 0.01 µM [1] [%]	Contriction Inhibition [2] [%]	inhibition in vivo at 1 mg/kg (Substance P) [%]	influence on body weights gains (SD rats)	influence on numbers of erythrocytes (SD rats)	influence on numbers of leukocytes (SD rats)	influence on organ weights (SD rats)
COc1ccccc1CN[C@H]1CCCN[C@H]1c1ccccc1.Cl [Compound A, (2S,3S)-3-(2-methoxybenzyl)amino-2-phenylpiperidine hydrochloride, reference compound]	12	19								
COc1ccc(C(C)C)cc1CN[C@@H]1CN2CCC1CC2.Cl [Compound C, (2S,3S)-N-(5-isopropyl-2-methoxyphenyl)methyl-1-azabicyclo[2,2,2]octane-3-amine hydrochloride, reference compound]			10							
CC(C)c1cc2c(c(CN[C@H]3CCCN[C@H]3c3ccccc3)c1)OCC2.Cl [Example 23, (2S,3S)-3-[(5-isopropyl-2,3-dihydrobenzofuran-7-yl)methyl]amino-2-phenylpiperidine hydrochloride]			70	83.2	80.3	89				
Cl.c1ccc([C@@H]2NCCC[C@@H]2NCc2cc(C3CCCC3)cc3c2OCC3)cc1 [Example 25, (2S,3S)-3-[(5-cyclopentyl-2,3-dihydrobenzofuran-7-yl)methyl]amino-2-phenylpiperidine hydrochloride]			73	89.2	85.1	90				
CSc1cc2c(c(CN[C@H]3CCCN[C@H]3c3ccccc3)c1)OCC2.Cl [Example 46, (2S,3S)-3-[(5-methylthio-2,3-dihydrobenzofuran-7-yl)methyl]amino-2-phenylpiperidine hydrochloride]			60	65.3	72.3	72	no influence	no influence	no influence	no influence
Cl.FC(F)(F)Oc1cc2c(c(CN[C@H]3CCCN[C@H]3c3ccccc3)c1)OCC2 [Example 53, (2S,3S)-3-[(5-trifluoromethoxy-2,3-dihydrobenzofuran-7-yl)methyl]amino-2-phenylpiperidine hydrochloride]			65	53.5	69.3	69				
